Experimental data reported in patent publication US4321265A, “7α-Methoxycephalosporins” (Toyama Chemical Co., Ltd., priority 1977, dated 1982).
≈ marks a conversion by molar mass, not a printed value.

Tests used:
Assay in all cases: Minimum inhibitory concentration (MIC), Heart Infusion agar
Type in all cases: cell-based
Ser. marcescens W-35 = settings: Serratia marcescens, W35, 20 h, Ser. marcescens W-35; 10^6 cells/ml; 20 hours, 37° C. (Table 1); read-out: minimum inhibitory concentration (MIC)
Protocol: (§1) Antibacterial activities of the representative compounds (Ib) of the 7α-methoxycephalosporins according to this invention are shown in Table 1. [drawing 20]
The figures given in Table 1 represent the minimum inhibitory concentration (MIC in mcg/ml) of each compound, which was determined according to the method described in "Chemotherapy (Society of Chemotherapy, Japan), Vol. 16, 98-99 (1968)": A culture obtained by cultivating the test bacterium in a Heart Infusion broth (Eiken Kagaku Co.) was inoculated into a Heart Infusion agar medium (Eiken Kagaku Co.). After 20 hours of the incubation at 37° C., the growth of the bacterium was inspected to determine the minimum inhibitory concentration (MIC in mcg/ml). […]
(§2) (1) Minimum inhibitory concentration (MIC in mcg/ml).

[1] = tested on: S. aureus F-19 (Penicillinase-producing bacterium); settings: Staphylococcus aureus; S. aureus F-19; 10^6 cells/ml; 20 hours, 37° C.; read-out: minimum inhibitory concentration (MIC)
Protocol: as §1
(§3) The figures given in Table 1 represent the minimum inhibitory concentration (MIC in mcg/ml) of each compound, which was determined according to the method described in "Chemotherapy (Society of Chemotherapy, Japan), Vol. 16, 98-99 (1968)": A culture obtained by cultivating the test bacterium in a Heart Infusion broth (Eiken Kagaku Co.) was inoculated into a Heart Infusion agar medium (Eiken Kagaku Co.). After 20 hours of the incubation at 37° C., the growth of the bacterium was inspected to determine the minimum inhibitory concentration (MIC in mcg/ml). The inoculation rate of the bacterium was 10^4 cells/plate (10^6 cells/ml).
as §2

Ent. cloacae IID977 = settings: Enterobacter cloacae; Ent. cloacae IID977; 10^6 cells/ml; 20 hours, 37° C.; read-out: minimum inhibitory concentration (MIC)
Protocol: as §1, §3, §2

Ser. marcescens W-8 = settings: Serratia marcescens, W8; Ser. marcescens W-8; 10^6 cells/ml; 20 hours, 37° C.; read-out: minimum inhibitory concentration (MIC)
Protocol: as §1, §3, §2

Citrobacter N-7 = settings: N7; Citrobacter N-7; 10^6 cells/ml; 20 hours, 37° C.; read-out: minimum inhibitory concentration (MIC)
Protocol: as §1, §3, §2

Ser. marcescens IID620 = settings: Serratia marcescens; Ser. marcescens IID620; 10^6 cells/ml; 20 hours, 37° C.; read-out: minimum inhibitory concentration (MIC)
Protocol: as §1, §3, §2

[2] = tested on: C. freundii GN-346 (Cephalosporinase-producing bacterium); settings: Citrobacter freundii, GN346; C. freundii GN-346; 10^6 cells/ml; 20 hours, 37° C.; read-out: minimum inhibitory concentration (MIC)
Protocol: as §1, §3, §2

Klebsiella spp. Y-72 = settings: SPP.Y72; Klebsiella spp. Y-72; 10^6 cells/ml; 20 hours, 37° C.; read-out: minimum inhibitory concentration (MIC)
Protocol: as §1, §3, §2

E. coli NIHJ = settings: Escherichia coli; E. coli NIHJ; 10^6 cells/ml; 20 hours, 37° C.; read-out: minimum inhibitory concentration (MIC)
Protocol: as §1, §3, §2

Ps. aeruginosa IFO-3445 = settings: Pseudomonas aeruginosa, IFO3445; Ps. aeruginosa IFO-3445; 10^6 cells/ml; 20 hours, 37° C.; read-out: minimum inhibitory concentration (MIC)
Protocol: as §1, §3, §2

Prot. vulgaris GN-76 = settings: Proteus vulgaris, GN76; Prot. vulgaris GN-76; 10^6 cells/ml; 20 hours, 37° C.; read-out: minimum inhibitory concentration (MIC)
Protocol: as §1, §3, §2

K. pneumoniae Y-50 = settings: Klebsiella pneumoniae, Y50; K. pneumoniae Y-50; 10^6 cells/ml; 20 hours, 37° C.; read-out: minimum inhibitory concentration (MIC)
Protocol: as §1, §3, §2

Ps. aeruginosa S-68 = settings: Pseudomonas aeruginosa, S68; Ps. aeruginosa S-68; 10^6 cells/ml; 20 hours, 37° C.; read-out: minimum inhibitory concentration (MIC)
Protocol: as §1, §3, §2

[3] = tested on: Acinetobacter caloaceticus A-6; settings: A6; Acinetobacter caloaceticus A-6; 10^6 cells/ml; 20 hours, 37° C.; read-out: minimum inhibitory concentration (MIC)
Protocol: as §1, §3, §2

Compound	MIC (Ser. marcescens W-35)	MIC [1]	MIC (Ent. cloacae IID977)	MIC (Ser. marcescens W-8)	MIC (Citrobacter N-7)	MIC (Ser. marcescens IID620)	MIC [2]	MIC (Klebsiella spp. Y-72)	MIC (E. coli NIHJ)	MIC (Ps. aeruginosa IFO-3445)	MIC (Prot. vulgaris GN-76)	MIC (K. pneumoniae Y-50)	MIC (Ps. aeruginosa S-68)	MIC [3]
CCN1CCN(C(=O)NC(C(=O)N[C@]2(OC)C(=O)N3C(C(=O)O)=C(CSc4nnnn4CCO)CS[C@@H]32)c2cccs2)C(=O)C1=O (stereo partly drawn)	12.5 µg/mL (≈ 18 µM)	3.13 µg/mL (≈ 4.5 µM)	25 µg/mL (≈ 35.9 µM)	50 µg/mL (≈ 71.9 µM)	1.56 µg/mL (≈ 2.24 µM)	0.2 µg/mL (≈ 0.287 µM)	12.5 µg/mL (≈ 18 µM)	1.56 µg/mL (≈ 2.24 µM)	≤ 0.1 µg/mL	12.5 µg/mL (≈ 18 µM)	0.39 µg/mL (≈ 0.561 µM)	0.39 µg/mL (≈ 0.561 µM)	12.5 µg/mL (≈ 18 µM)	6.25 µg/mL (≈ 8.98 µM)
CCN1CCN(C(=O)N[C@@H](C(=O)N[C@]2(OC)C(=O)N3C(C(=O)O)=C(COC(C)=O)CS[C@@H]32)c2cccs2)C(=O)C1=O [OCOCH3, 7β-[D(-)-α-(4-ethyl-2,3-dioxo-1-piperazinecarboxamido)-α-(2-thienyl)-acetamido]-7α-methoxy-3-acetoxymethyl-Δ^3-cephem-4-carboxylic acid]	50 µg/mL (≈ 82 µM)	6.25 µg/mL (≈ 10.3 µM)	50 µg/mL (≈ 82 µM)	100 µg/mL (≈ 164 µM)	3.13 µg/mL (≈ 5.13 µM)	3.13 µg/mL (≈ 5.13 µM)	100 µg/mL (≈ 164 µM)	6.25 µg/mL (≈ 10.3 µM)	≤ 0.1 µg/mL	50 µg/mL (≈ 82 µM)	1.56 µg/mL (≈ 2.56 µM)	1.56 µg/mL (≈ 2.56 µM)	50 µg/mL (≈ 82 µM)	25 µg/mL (≈ 41 µM)
CCN1CCN(C(=O)NC(C(=O)N[C@]2(OC)C(=O)N3C(C(=O)O)=C(CSc4nnnn4C)CS[C@@H]32)C2=CCC=CC2)C(=O)C1=O (stereo partly drawn)	50 µg/mL (≈ 75.6 µM)	3.13 µg/mL (≈ 4.73 µM)	25 µg/mL (≈ 37.8 µM)	100 µg/mL (≈ 151 µM)	6.25 µg/mL (≈ 9.45 µM)	0.78 µg/mL (≈ 1.18 µM)	25 µg/mL (≈ 37.8 µM)	12.5 µg/mL (≈ 18.9 µM)	≤ 0.1 µg/mL	12.5 µg/mL (≈ 18.9 µM)	3.13 µg/mL (≈ 4.73 µM)	0.78 µg/mL (≈ 1.18 µM)	25 µg/mL (≈ 37.8 µM)	6.25 µg/mL (≈ 9.45 µM)
CCN1CCN(C(=O)NC(C(=O)N[C@]2(OC)C(=O)N3C(C(=O)O)=C(CSc4nnnn4C)CS[C@@H]32)c2cccs2)C(=O)C1=O (stereo partly drawn) [drawing 22]	6.25 µg/mL (≈ 9.39 µM)	3.13 µg/mL (≈ 4.7 µM)	25 µg/mL (≈ 37.6 µM)	25 µg/mL (≈ 37.6 µM)	0.78 µg/mL (≈ 1.17 µM)	0.78 µg/mL (≈ 1.17 µM)	25 µg/mL (≈ 37.6 µM)	6.25 µg/mL (≈ 9.39 µM)	≤ 0.1 µg/mL	12.5 µg/mL (≈ 18.8 µM)	0.2 µg/mL (≈ 0.3 µM)	0.39 µg/mL (≈ 0.586 µM)	12.5 µg/mL (≈ 18.8 µM)	12.5 µg/mL (≈ 18.8 µM)
CCN1CCN(C(=O)NC(C(=O)N[C@]2(OC)C(=O)N3C(C(=O)O)=C(CSc4nnnn4CC(=O)NO)CS[C@@H]32)c2cccs2)C(=O)C1=O (stereo partly drawn)	200 µg/mL (≈ 276 µM)	25 µg/mL (≈ 34.5 µM)	200 µg/mL (≈ 276 µM)	100 µg/mL (≈ 138 µM)	50 µg/mL (≈ 69 µM)	0.78 µg/mL (≈ 1.08 µM)	≥ 200 µg/mL	100 µg/mL (≈ 138 µM)	≤ 0.1 µg/mL	12.5 µg/mL (≈ 17.2 µM)	0.78 µg/mL (≈ 1.08 µM)	1.56 µg/mL (≈ 2.15 µM)	25 µg/mL (≈ 34.5 µM)	1.56 µg/mL (≈ 2.15 µM)
C=Cn1nnnc1SCC1=C(C(=O)O)N2C(=O)[C@](NC(=O)C(NC(=O)N3CCN(CC)C(=O)C3=O)c3cccs3)(OC)[C@H]2SC1 (stereo partly drawn)	12.5 µg/mL (≈ 18.4 µM)	3.13 µg/mL (≈ 4.62 µM)	25 µg/mL (≈ 36.9 µM)	25 µg/mL (≈ 36.9 µM)	3.13 µg/mL (≈ 4.62 µM)	0.2 µg/mL (≈ 0.295 µM)	12.5 µg/mL (≈ 18.4 µM)	6.25 µg/mL (≈ 9.22 µM)	≤ 0.1 µg/mL	25 µg/mL (≈ 36.9 µM)	0.78 µg/mL (≈ 1.15 µM)	0.39 µg/mL (≈ 0.575 µM)	12.5 µg/mL (≈ 18.4 µM)	12.5 µg/mL (≈ 18.4 µM)
CCN1CCN(C(=O)NC(C(=O)N[C@]2(OC)C(=O)N3C(C(=O)O)=C(CSc4nnnn4CC(C)=O)CS[C@@H]32)c2cccs2)C(=O)C1=O (stereo partly drawn)	25 µg/mL (≈ 35.3 µM)	6.25 µg/mL (≈ 8.83 µM)	50 µg/mL (≈ 70.6 µM)	50 µg/mL (≈ 70.6 µM)	6.25 µg/mL (≈ 8.83 µM)	0.2 µg/mL (≈ 0.283 µM)	25 µg/mL (≈ 35.3 µM)	6.25 µg/mL (≈ 8.83 µM)	≤ 0.1 µg/mL	25 µg/mL (≈ 35.3 µM)	0.78 µg/mL (≈ 1.1 µM)	0.39 µg/mL (≈ 0.551 µM)	25 µg/mL (≈ 35.3 µM)	25 µg/mL (≈ 35.3 µM)
CCN1CCN(C(=O)NC(C(=O)N[C@]2(OC)C(=O)N3C(C(=O)O)=C(CSc4nnnn4CCN(C)C)CS[C@@H]32)c2cccs2)C(=O)C1=O (stereo partly drawn)	50 µg/mL (≈ 69.2 µM)	6.25 µg/mL (≈ 8.65 µM)	25 µg/mL (≈ 34.6 µM)	50 µg/mL (≈ 69.2 µM)	6.25 µg/mL (≈ 8.65 µM)	0.39 µg/mL (≈ 0.54 µM)	25 µg/mL (≈ 34.6 µM)	12.5 µg/mL (≈ 17.3 µM)	≤ 0.1 µg/mL	50 µg/mL (≈ 69.2 µM)	1.56 µg/mL (≈ 2.16 µM)	0.78 µg/mL (≈ 1.08 µM)	25 µg/mL (≈ 34.6 µM)	12.5 µg/mL (≈ 17.3 µM)
CCN1CCN(C(=O)NC(C(=O)N[C@]2(OC)C(=O)N3C(C(=O)O)=C(CSc4nnnn4CC(=O)O)CS[C@@H]32)c2cccs2)C(=O)C1=O (stereo partly drawn)	100 µg/mL (≈ 141 µM)	6.25 µg/mL (≈ 8.81 µM)	25 µg/mL (≈ 35.2 µM)	50 µg/mL (≈ 70.4 µM)	1.56 µg/mL (≈ 2.2 µM)	0.78 µg/mL (≈ 1.1 µM)	50 µg/mL (≈ 70.4 µM)	25 µg/mL (≈ 35.2 µM)	≤ 0.1 µg/mL	25 µg/mL (≈ 35.2 µM)	0.78 µg/mL (≈ 1.1 µM)	6.25 µg/mL (≈ 8.81 µM)	50 µg/mL (≈ 70.4 µM)	25 µg/mL (≈ 35.2 µM)
